Like-named read-outs stand apart in the source and are kept apart here. Blank lines part the entries; values can stand above or below the molecule they belong to.
What was measured:
[1] = test system: HOP-62; assay: COMPARE screening (NCI), GI50 in HOP-62
Description: (§1) This in vitro prescreening system is based on the measurement of anticancer cytotoxicity against human cancer cell line panels consisting of approximately 60 cell lines of major human cancers (including leukemia, and slower growing tumor cells such as lung, colon, breast, skin, kidney, etc.) and is referred hereinafter as “COMPARE” screening.
(§2) COMPARE screening. The compounds described herein were examined for antiproliferative activity against the human cancer cell lines in the National Cancer Institute screen (COMPARE screening), in which the activity of each compound was evaluated with approximately 55 different cancer cell lines of diverse tumor origins. […] Therefore, the MGM value represents an overall assessment of toxicity of the compound across numerous cell lines.

[2] = test system: HCT-116; assay: COMPARE screening (NCI), GI50 in HCT-116
Description: as §1, §2

[3] = test system: SF-539; assay: COMPARE screening (NCI), GI50 in SF-539
Description: as §1, §2

[4] = test system: UACC-62; assay: COMPARE screening (NCI), GI50 in UACC-62
Description: as §1, §2

[5] = test system: OVCAR-3; assay: COMPARE screening (NCI), GI50 in OVCAR-3; details: OVCAR-3, concentration corresponding to 50% growth inhibition
Description: as §1, §2

[6] = test system: SN12C; assay: COMPARE screening (NCI), GI50 in SN12C
Description: as §1, §2

[7] = test system: DU-145; assay: COMPARE screening (NCI), GI50 in DU-145
Description: as §1, §2

[8] = test system: MDA-MB-435; assay: COMPARE screening (NCI), GI50 in MDA-MB-435
Description: as §1, §2

[9] = test system: SR
Description: as §1, §2

[10] = test system: all human cancer cell lines successfully tested (approximately 55); assay: COMPARE screening, mean graph midpoint (MGM); type: cell-based; details: average GI50 over all cell lines tested, values outside 10^-8 to 10^-4 molar taken as the limits, read-out: MGM (mean graph midpoint for growth inhibition); for MGM (mean GI50 across cell lines): Homo sapiens
Description: as §1, §2

[11] = target: T1, topoisomerase I (Homo sapiens, UniProt P11387); assay: Topoisomerase I-mediated DNA cleavage, 3'-end-labeled 161 bp pBluescript SK(-) fragment; type: biochemical; details: Table 2; tested at concentrations ranging up to 10 μM; semi-quantitative relative to compound A
T1 sequence (P11387 1-765): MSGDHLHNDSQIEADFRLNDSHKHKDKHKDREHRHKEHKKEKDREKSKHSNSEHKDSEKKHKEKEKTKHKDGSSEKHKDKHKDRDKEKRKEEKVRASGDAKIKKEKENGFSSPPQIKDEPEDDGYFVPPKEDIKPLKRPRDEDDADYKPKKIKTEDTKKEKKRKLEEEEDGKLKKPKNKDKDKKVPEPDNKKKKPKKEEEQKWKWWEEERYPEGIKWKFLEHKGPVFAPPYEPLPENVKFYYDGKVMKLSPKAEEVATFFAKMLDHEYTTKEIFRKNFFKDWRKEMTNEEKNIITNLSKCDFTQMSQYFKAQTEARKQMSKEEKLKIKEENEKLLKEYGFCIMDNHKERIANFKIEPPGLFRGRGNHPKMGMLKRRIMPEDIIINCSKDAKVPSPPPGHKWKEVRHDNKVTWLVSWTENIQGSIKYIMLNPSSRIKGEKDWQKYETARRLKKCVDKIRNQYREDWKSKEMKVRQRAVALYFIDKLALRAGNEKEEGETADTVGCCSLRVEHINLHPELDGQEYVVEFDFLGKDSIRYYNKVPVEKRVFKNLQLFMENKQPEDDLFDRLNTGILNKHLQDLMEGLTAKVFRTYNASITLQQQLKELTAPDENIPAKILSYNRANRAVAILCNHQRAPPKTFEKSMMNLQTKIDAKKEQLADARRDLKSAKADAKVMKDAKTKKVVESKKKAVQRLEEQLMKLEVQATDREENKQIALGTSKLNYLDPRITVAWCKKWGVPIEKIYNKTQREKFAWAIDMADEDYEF
Protocol: The assays were carried out at room temperature for 30 min and stopped by adding 0.5% SDS. […] Topoisomerase I was present in all reaction mixtures except for the one corresponding to the first lane.
Induction of DNA cleavage.
Labeling reactions were followed by phenol-chloroform extraction and ethanol precipitation. […] Reactions were terminated by adding 0.5% SDS.
DNA Cleavage Semiquantitative Analysis. […] The rubberband baseline correction was applied with band detection sensitivity set at 90.

[12] = Homo sapiens, HOP-62, read-out: Cytotoxicity GI50, lung HOP-62, lung, HOP-62, concentration corresponding to 50% growth inhibition
[13] = Homo sapiens, HCT-116, read-out: Cytotoxicity GI50, colon HCT-116, colon, HCT-116, concentration corresponding to 50% growth inhibition
[14] = Homo sapiens, read-out: Cytotoxicity GI50, CNS SF-539
[15] = Homo sapiens, UACC-62, read-out: Cytotoxicity GI50, melanoma UACC-62, melanoma, UACC-62, concentration corresponding to 50% growth inhibition
[16] = Homo sapiens, OVCAR-3, read-out: Cytotoxicity GI50, ovarian OVCAR-3, ovarian
[17] = Homo sapiens, SN12C, read-out: Cytotoxicity GI50, renal SN12C, renal, SN12C, concentration corresponding to 50% growth inhibition
[18] = Homo sapiens, DU-145, read-out: Cytotoxicity GI50, prostate DU-145, prostate, DU-145, concentration corresponding to 50% growth inhibition
[19] = Homo sapiens, MDA-MB-435, read-out: Cytotoxicity GI50, breast MDA-MB-435, breast, MDA-MB-435, concentration corresponding to 50% growth inhibition

Compound: COc1cc2c[n+](CCCNC(C)=O)c3c(c2cc1OC)C(=O)c1cc2c(cc1-3)OCO2 [Compound 6ab, 2,3-Dimethoxy-6-(3-N-acetylamino-1-propyl)-8,9-(methylenedioxy)-11-oxo-indeno[1,2-c]isoquinolinium Chloride]
GI50 [1]: 1 µM | GI50 [2]: 5.08 µM | GI50 [3]: 0.0968 µM | GI50 [4]: 3.43 µM | GI50 ([5]; read-out: Cytotoxicity GI50, ovarian OVCAR-3, ovarian): 12.2 µM | GI50 [6]: 2.76 µM | GI50 [7]: 0.907 µM | GI50 [8]: 0.466 µM | GI50 [9]: 0.0929 µM | IC50 [10]: 7.96 µM

MGM (mean GI50 across cell lines) [10]: 2.01 µM | Top 1 Cleavage [11]: ++ (++, similar activity as compound A)
Compound: COc1cc2c3c(ncc2c(OC)c1OC)-c1c(ccc2c1OCO2)C3.Cl [Compound 9cb, 2,3,4-Trimethoxy-7,8-methylenedioxy-11H-indeno[1,2-c]isoquinoline Hydrochloride]
GI50 [1, 12]: 0.234 µM | GI50 [2, 13]: 0.0694 µM | GI50 [3, 14]: 0.869 µM | GI50 [4, 15]: 0.439 µM | GI50 [5, 16]: 0.403 µM | GI50 [6, 17]: 0.602 µM | GI50 [7, 18]: > 100 µM | GI50 [8, 19]: 0.178 µM

MGM (mean GI50 across cell lines) [10]: 18.6 µM | Top 1 Cleavage [11]: 0 (0, no activity)
Compound: COc1ccc2c(c1OC)-c1ncc3c(OC)ccc(OC)c3c1C2.Cl [Compound 9da, 1,4,7,8-Tetramethoxy-11H-indeno[1,2-c]isoquinoline Hydrochloride]
GI50 [1, 12]: 21.4 µM | GI50 [2, 13]: 17.8 µM | GI50 [3, 14]: 14 µM | GI50 [4, 15]: 18 µM | GI50 [5, 16]: 15.4 µM | GI50 [6, 17]: 14.8 µM | GI50 [7, 18]: 28.1 µM | GI50 [8, 19]: 23.4 µM

— patent US7781445B2, “Synthesis of indenoisoquinoliniums and methods of use” (Purdue Research Foundation, priority 2005, dated 2010)
